What was measured:
Test in all cases: Cell viability for doxorubicin (WST-1)
Format in all cases: cell-based, human
SKOV3-ssiCSC = settings: DOX at various concentrations, 24 hours
Method: (§1) ssiCSC spheroids prepared from different kinds of cancer cells (SKOV3, MCF-7, Hep3B and SW480) were isolated using trypsin (TrypLE Express, Gibco), and the isolated cells were washed with D-PBS twice. The ssiCSC was plated on a 96-well plate (1×10^4 cells/well) and was cultured in a cell growth medium at 37° C. for 24 hours. Then, the medium was removed, and a new medium comprising various concentrations of doxorubicin was added to each well and cultured for 24 hours. Next, each well was washed with D-PBS and was replaced with a new cell growth medium of 100 μl, and then WST-1 cell proliferation reagent (Roche) of 10 μl was added and cultured for 4 hours. Then, the absorbance at 450 nm (standard wavelength, 600 nm) was measured using a microplate reader (Molecular Devices).
(§2) In addition, the drug resistance of ssiCSC for doxorubicin (DOX) known as an anti-cancer agent was confirmed. Specifically, ssiCSC spheroids prepared by culturing on the pV4D4 surface for 8 days were isolated to single cells, and the cell was cultured on the conventional TCP surface to a 2D single layer, and then DOX at various concentrations was treated for 24 hours.

SW480-ssiCSC = tested on: SW480-ssiCSC
Method: as §1, §2

[1] = tested on: ssiCSC (SKOV3, MCF-7, Hep3B and SW480); settings: Dox of 50 μM, 24 hours, vs 2D control group
Method: as §1, §2

Structure (SMILES): COc1cccc2c1C(=O)c1c(O)c3c(c(O)c1C2=O)C[C@@](O)(C(=O)CO)C[C@@H]3O[C@H]1C[C@H](N)[C@H](O)[C@H](C)O1 [Dox, doxorubicin]
- drug resistance (cell viability) (SKOV3-ssiCSC): complete resistance
- drug resistance (cell viability) (SW480-ssiCSC; DOX at various concentrations, 24 hours): complete resistance
- drug resistance after subculture (SW480-ssiCSC; subcultured on the TCP surface twice): maintained drug resistance
- cell viability (SW480-ssiCSC; vs control group cancer cells without DOX): higher cell viability than the cancer cells of the control group in which DOX was not treated
- drug resistance (cell viability) [1]: higher resistance
